≈ marks a conversion by molar mass, not a printed value. Where “and” joins values, the source holds several entries; their conditions need not be identical. Identical values can stand only once. Like-named read-outs stand apart in the source and are kept apart here.
Legend:
[1] = test system: intracellular forms of T. cruzi (Tulahuen strain); test: Activity against intracellular forms of T. cruzi (Tulahuen-β gal strain) in infected L929 cell lines, CPRG readout; format: cell-based, Trypanosoma cruzi; conditions: for SI (Selectivity Index), intracellular forms: LC50 L929 / EC50 intracellular forms; for inhibition at 10 µM / EC50: Trypanosoma cruzi
Experimental: The crude extracts and the resulting fractions were evaluated following a well standardized protocol of phenotypic analysis for novel drug candidates for CD [25]. The first approach was the screening against intracellular amastigotes (Tulahuen-β gal strain, DTU VI) using a fixed concentration of 10 µg/mL, which corresponds to the 90% effective concentration (EC90)value of the reference drug (Bz) for CD (Table 1). The leaves fraction using dichloromethane from Aureliana fasciculata var. fasciculata (AFfPD) sterilized T. cruzi infection in L929 cell lines, leading to 100% of infection reduction. […] Natural products from fruit pulp of C. cujete have no trypanocidal effect at a concentration of 10 µg/mL.
Culture derived trypomastigotes of Tulahuen strain (DTU VI), transfected with the β-galactosidase gene from Escherichia coli, were collected from the supernatant of previously infected L929 fibroblasts. Trypomastigotes were used to infect L929 cultures at a ratio of 10:1 (parasites/host cell) to determine activity against intracellular forms. After 2 h of interaction, the cultures were washed for the removal of remaining parasites and incubated for 48 h to ensure the establishment of the infection. On the first set of assays, the compounds were added in a fixed concentration (10 µg/mL or 10 µM for the extracts and purified fractions, respectively) that corresponds to EC90 of Bz. The non-infected cells (controls) were treated with DMSO and Bz and were also evaluated. The compounds that reached the same or higher activity than Bz were later evaluated in assays with increasing concentrations (serially diluted (7-fold): 0–50 µg/mL for extracts and fractions and 0–50 µM for purified compounds and Bz) for the determination of the EC50 and EC90 values (minimal concentration able to reduce to 50% and 90% of the infection index in cultures). In both assays the cultures were maintained at 37 °C for 96 h to enable the calculation of the inhibition percentage on the infection. Thereafter, 500 μM of substrate CPRG (chlorophenol red-β-D-galactopiranosideo) in 0.5% Nonidet P40 (Sigma-Aldrich, St. Louis, MO, United States) were added to the in vitro system. The plates were incubated for 18 h at 37 °C and, following, the absorbance was measured at 570 nm. […] All the assays were conducted in duplicate at least three times.

[2] = test system: bloodstream trypomastigotes of T. cruzi (Y strain); test: Activity against bloodstream trypomastigotes (Y strain), light microscopy count of live parasites; format: cell-based, Trypanosoma cruzi; conditions: for SI (Selectivity Index), bloodstream trypomastigotes: LC50 cardiac cell cultures / EC50 bloodstream trypomastigotes
Experimental: In addition, the activity of both natural products was also evaluated against bloodstream trypomastigotes (BT), another relevant form of T. cruzi in mammalian hosts (Table 2). […] As cardiomyopathy is one of the main chronic symptoms of CD, next, the cardiotoxicity profile was assessed using primary cultures of mouse cardiac cells (CC) incubated with increasing concentration of both biomolecules and Bz. After […] of incubation with both extracts, no evident cardiac alterations related to cellular density and morphology was observed by light microscopy.
Bloodstream trypomastigotes (BT) of the T. cruzi Y strain (DTU II) were obtained by cardiac punction from Swiss Webster mice during the parasitemia peak and the purified parasites were resuspended in Dulbecco’s modified Eagle medium (DMEM) (Cultilab) supplemented with 10% fetal bovine serum (FBS).

in vitro = format: cell-based
Experimental: (§1) Primary cardiac cell cultures (CC) were obtained from Swiss Webster mice embryo hearts (18 gestation days) as described by Meirelles et al. and were used for toxicity assays. After purification, the cardiac cells were seeded (0.5 × 10^5 cells/well) in 96 wells microplates previously coated with 0.01% gelatin. The cardiac cultures were maintained in Dulbecco’s Modified Eagle’s Medium supplemented with 6% of FBS, 2.5 mM CaCl2, 1 mM L-glutamine, 1mM penicillin and 2% chicken embryo extract. Mice fibroblast of the line NTCL clone 929 (L929) were used for toxicity and anti-T. cruzi activity assays. L929 cells were seeded (4 × 10^3 cells/well) in 96 well microplates and kept in RPMI-1640 medium (Sigma-Aldrich, Missouri, EUA) supplemented with 10% FBS, 1% L-glutamine and 1% penicillin. The cell cultures were maintained at 37 °C at 5% CO2.
(§2) Cell viability was assessed using PrestoBlue (for assay with CC) and AlamarBlue (for assays with L929) with fluorescence and absorbance readouts (560–590 and 570–600 nm, respectively) in a spectrophotometer (Tunable microplates reader VersaMax; Molecular Devices). Additionally, cell morphology aspects were evaluated in a light microscope, as well as the contractability, density and cytoplasmic vacuolization. Cell viability rates were then determined by the LC50 values that correspond to the compound concentration able to reduce in 50% the viability of the cell population.

L929 cell lines = test: in vitro; format: cell-based
Experimental: as §1, §2

[3] = Cardiotoxicity, primary cardiac cell cultures (PrestoBlue, light microscopy); format: cell-based; conditions: Swiss Webster, mouse
Experimental: as §1, §2

[4] = test system: L. amazonensis infected macrophages; design: method as in PMID 30513673; conditions: cited from earlier work; for EC50: read-out: EC50 upon infected macrophages
[5] = test system: promastigotes of L. amazonensis; design: method as in PMID 30513673; conditions: cited from earlier work
[6] = test system: cell-derived trypomastigotes; design: method as in PMID 28177047; conditions: cited from earlier work
[7] = TULAHUEN, L929, 96 h, read-out: % of Infection Reduction, 10 μM, 96 h of incubation, L929 cell line infected with Tulahuen strain
[8] = TULAHUEN, L929, 96 h, read-out: EC50 intracellular forms
[9] = Trypanosoma cruzi, 2 h, read-out: EC50 bloodstream trypomastigotes, 2 h, Y strain
[10] = Trypanosoma cruzi, 24 h, read-out: EC50 bloodstream trypomastigotes, 24 h, Y strain
[11] = Trypanosoma cruzi, 24 h, read-out: EC90 bloodstream trypomastigotes
[12] = TULAHUEN, L929, 96 h, 10 μM, 96 h of incubation, L929 cell line infected with Tulahuen strain, read-out: % of Infection Reduction
[13] = 96 h, Tulahuen strain, L929 host cells, read-out: EC50 intracellular forms
[14] = Trypanosoma cruzi, 2 h, Y strain, read-out: EC50 bloodstream trypomastigotes
[15] = Trypanosoma cruzi, 24 h, Y strain, read-out: EC50 bloodstream trypomastigotes
[16] = Trypanosoma cruzi, 24 h, Y strain, read-out: EC90 bloodstream trypomastigotes

For `O=C(Cn1ccnc1[N+](=O)[O-])NCc1ccccc1` [Bz, Benznidazole, reference compound], which “SI (Selectivity Index), intracellular forms” value ([1]; 96 h, µM data) is on record?
Its value is >66.6.

And the “SI (Selectivity Index), intracellular forms” value ([1]; 96 h, μg/mL data)?
The value was > 52.

What about the inhibition at 10 µM [1, 7] of the same compound?
Its inhibition at 10 µM is 92 ± 7%.

What about the EC50 [1, 8] of the same compound?
Its EC50 is 3 ± 0.6 µM.

And the EC50 ([1]; TULAHUEN, L929, 96 h, read-out: EC50 intracellular forms (Tulahuen strain))?
Its EC50 is 3.8 ± 1.8 µg/mL.

What about the “% of Infection Reduction after 96 h of Incubation” value ([1]; fixed concentration of 10 µg/mL, L929 cell lines infected with Tulahuen strain, 96 h) of the same compound?
Its value is 90.5 ± 5.7%.

What about the “SI (Selectivity Index), bloodstream trypomastigotes” value ([2]; 24 h, µM data) of the same compound?
Its value is >57.1.

What about the “SI (Selectivity Index), bloodstream trypomastigotes” value ([2]; 24 h, μg/mL data) of the same compound?
The value was >83.

What about the EC50 ([2]; Trypanosoma cruzi, 2 h, read-out: EC50 bloodstream trypomastigotes (Y strain), 2 h) of the same compound?
The EC50 was > 50 µg/mL.

What about the EC50 [2, 9] of the same compound?
The EC50 was > 50 µM.

And the EC90 ([2]; Trypanosoma cruzi, 2 h, read-out: EC90 bloodstream trypomastigotes (Y strain))?
The EC90 was > 50 µg/mL.

And the EC50 ([2]; Trypanosoma cruzi, 24 h, read-out: EC50 bloodstream trypomastigotes (Y strain), 24 h)?
The EC50 was 10.2 ± 0.3 µg/mL.

And the EC50 [2, 10]?
The EC50 was 13.1 ± 3.9 µM.

What about the EC90 [2, 11] of the same compound?
Its EC90 is 31.3 ± 8.8 µM.

And the EC90 ([2]; Trypanosoma cruzi, 24 h, read-out: EC90 bloodstream trypomastigotes (Y strain))?
The EC90 was 23.3 ± 0.6 µg/mL.

And the CC50 at 96 h (in vitro; mouse)?
The CC50 at 96 h was > 200 µg/mL and > 200 µM.

What about the “LC50 L929 cell lines” value (L929 cell lines) of the same compound?
The value was “not toxic up to the higher tested concentration”.

And the CC50 at 24 h [3]?
Its CC50 at 24 h is > 750 µg/mL and > 750 µM.

For `CC(=O)O[C@@H]1CC2C3C[C@H]4O[C@]45[C@@H](O)C=CC(=O)[C@]5(C)C3CC[C@]2(C)[C@@]1(O)[C@H](C)C1CC(C)=C(C)C(=O)O1` (stereo partly shown) [Compound 1, Aurelianolide A], which “SI (Selectivity Index), intracellular forms” value ([1]; 96 h, µM data) is on record?
The value was 9.15.

And the inhibition at 10 µM [1, 12]?
The inhibition at 10 µM was > 90%.

And the EC50 [1, 13]?
Its EC50 is 4.6 ± 1.3 µM.

What about the “SI (Selectivity Index), bloodstream trypomastigotes” value ([2]; 24 h, µM data) of the same compound?
The value was 2.9.

What about the EC50 [2, 14] of the same compound?
The EC50 was > 50 µM.

What about the EC50 [2, 15] of the same compound?
The EC50 was 5.68 ± 2.3 µM.

And the EC90 [2, 16]?
Its EC90 is 8.33 ± 3.9 µM.

And the CC50 at 96 h (in vitro; mouse)?
Its CC50 at 96 h is 42.1 ± 28.3 µM.

And the CC50 at 24 h [3]?
Its CC50 at 24 h is 16.4 ± 1.3 µM.

What about the “selectivity indexes, infected macrophages” value [4] of the same compound?
Its value is 5.6.

And the EC50 [4]?
Its EC50 is 2.3 µM.

What about the “activity against promastigotes of L. amazonensis” value [5] of the same compound?
Its value is “active”.

What does the source list for `CC(=O)O[C@@H]1CC2C3CC=C4[C@@H](O)C=CC(=O)[C@]4(C)C3CC[C@]2(C)[C@@]1(O)[C@H](C)C1CC(C)=C(C)C(=O)O1` (stereo partly shown) [Compound 2, Aurelianolide B]?
SI (Selectivity Index), intracellular forms ([1]; 96 h, µM data): 17.1; inhibition at 10 µM [1, 12]: > 90%; EC50 [1, 13]: 1.6 ± 0.4 µM; SI (Selectivity Index), bloodstream trypomastigotes ([2]; 24 h, µM data): 5.4; EC50 [2, 14]: > 50 µM; EC50 [2, 15]: 5.72 ± 1.3 µM; EC90 [2, 16]: 9.25 ± 3.2 µM; CC50 at 96 h (in vitro; mouse): 27.4 ± 1 µM; CC50 at 24 h [3]: 30.9 ± 3.8 µM; selectivity indexes, infected macrophages [4]: 2.0; EC50 [4]: 6.43 µM; activity against promastigotes of L. amazonensis [5]: active

Which inhibition at 10 µM [1, 12] does the source give for `C[C@H]1[C@@H](O)CCC2[C@]3(C)CC[C@@]4(C)C5CC(C)(C)CC[C@]5(C)CC[C@]4(C)C3CC[C@@]21C` (stereo partly drawn) [Compound 3, 3 beta-friedelanol] here?
Its inhibition at 10 µM is 21 ± 10%.

With `C[C@H]1C(=O)CC[C@@H]2[C@]1(C)CC[C@H]1[C@@]2(C)CC[C@@]2(C)[C@@H]3CC(C)(C)CC[C@]3(C)CC[C@]12C` [Compound 6, Friedelin] as the compound, how does the inhibition at 10 µM [1, 12] read?
The inhibition at 10 µM was 0%.

With `COc1cc([C@H]2O[C@H](c3cc(OC)c(OC)c(OC)c3)[C@@H](C)[C@@H]2C)cc(OC)c1OC` [Compound 7, (-)-grandisin] as the compound, how does the inhibition at 10 µM [1, 12] read?
Its inhibition at 10 µM is 25 ± 36%.

What does the source list for `COc1cc(/C=C/C(=O)N2CCC=CC2=O)cc(OC)c1OC` [Compound 8, Piplartine]?
SI (Selectivity Index), intracellular forms ([1]; 96 h, µM data): 9; inhibition at 10 µM [1, 7]: ~50%; EC50 [1, 8]: 8.1 ± 0.9 µM; SI (Selectivity Index), bloodstream trypomastigotes ([2]; 24 h, µM data): 6.2; EC50 [2, 9]: > 50 µM; EC50 [2, 10]: 5.4 µM; EC90 [2, 11]: 14.4 ± 5.8 µM; EC50 ([2]; read-out: EC50 bloodstream trypomastigotes, 24 h, Y strain): 5.38 ± 0.3 µM; CC50 at 96 h (in vitro; 96 h, read-out: LC50 L929 cell lines): 73.1 ± 75.5 µM; CC50 at 24 h ([3]; 24 h, read-out: LC50 cardiac cell cultures): 33.1 ± 5.9 µM

Which selectivity index ([6]; cell-derived trypomastigotes) does the source give for `C=CC(C)(O)CCC=C(C)C` (stereo not shown) [linalool] here?
Its selectivity index is 2.9.

And the “EC50 against cell-derived trypomastigotes” value [6]?
Its value is 0.31 µg/mL (≈ 2.01 µM).

With Oleanolic acid [Compound 4] as the compound, how does the “% of Infection Reduction” value ([1]; 10 μM, 96 h of incubation, L929 cell line infected with Tulahuen strain) read?
The value was 20 ± 18%.
